Test results reported in patent US8394792B2, “Heterocyclic derivatives” (C&C Research Laboratories, priority 2008, dated 2013).
pIC50: −log10 of the molar value. Where two headings read alike, the source gives them in different places.

Columns and labels:
Cebus monkey = assay: Test for uricosuric effect in Cebus monkey; type: in vivo; conditions: for Plasma uric acid level: 4 hours after administration
CYP2C9 [1] = target: T1, CYP2C9 (Homo sapiens, UniProt P11712); assay: biochemical
hURAT1 = target: T2, hURAT1 (Homo sapiens, UniProt Q96S37); assay: Test for inhibiting urate reuptake activity via hURAT1 (uric acid transport assay in hURAT1-overexpressed HEK293 cell line); type: cell-based; conditions: hURAT1-overexpressed HEK293 cells, [14C]-uric acid uptake, 100 μM uric acid
T2 construct: expressed in transfected cells; host or cells: HEK293 (human kidney cell line), transient transfection with Fugene6
T2 sequence (Q96S37 1-553): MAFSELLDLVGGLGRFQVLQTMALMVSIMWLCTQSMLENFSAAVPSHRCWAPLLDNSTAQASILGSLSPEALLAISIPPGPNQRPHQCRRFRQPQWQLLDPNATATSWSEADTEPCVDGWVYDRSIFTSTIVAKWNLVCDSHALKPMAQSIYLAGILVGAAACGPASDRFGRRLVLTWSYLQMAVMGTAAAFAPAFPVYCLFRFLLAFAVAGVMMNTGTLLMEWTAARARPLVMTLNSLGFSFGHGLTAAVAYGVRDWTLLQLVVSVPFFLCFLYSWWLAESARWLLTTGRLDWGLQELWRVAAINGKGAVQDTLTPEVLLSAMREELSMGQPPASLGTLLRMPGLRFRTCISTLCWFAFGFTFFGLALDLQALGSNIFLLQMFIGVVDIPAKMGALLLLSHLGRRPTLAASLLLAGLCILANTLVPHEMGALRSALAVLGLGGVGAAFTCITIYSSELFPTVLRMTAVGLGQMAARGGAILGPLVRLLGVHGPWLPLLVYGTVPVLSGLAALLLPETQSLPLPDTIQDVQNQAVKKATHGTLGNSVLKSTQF

[2] = Test for solubility according to pH; type: physicochemical; conditions: 37° C. 2 hours; for solubility at 2 h: thermodynamic from solid
CYP2C9 [3] = target: T1, CYP2C9
[4] = cited from earlier work; for excretion rate in urine: until 72 hours after administration of benzbromarone
[5] = oral 15 mg/kg, during 0~8 hours
[6] = 2 tablets (50 mg/tablet) benzbromarone one time, healthy fasting adult

T1 sequence (P11712 whole entry): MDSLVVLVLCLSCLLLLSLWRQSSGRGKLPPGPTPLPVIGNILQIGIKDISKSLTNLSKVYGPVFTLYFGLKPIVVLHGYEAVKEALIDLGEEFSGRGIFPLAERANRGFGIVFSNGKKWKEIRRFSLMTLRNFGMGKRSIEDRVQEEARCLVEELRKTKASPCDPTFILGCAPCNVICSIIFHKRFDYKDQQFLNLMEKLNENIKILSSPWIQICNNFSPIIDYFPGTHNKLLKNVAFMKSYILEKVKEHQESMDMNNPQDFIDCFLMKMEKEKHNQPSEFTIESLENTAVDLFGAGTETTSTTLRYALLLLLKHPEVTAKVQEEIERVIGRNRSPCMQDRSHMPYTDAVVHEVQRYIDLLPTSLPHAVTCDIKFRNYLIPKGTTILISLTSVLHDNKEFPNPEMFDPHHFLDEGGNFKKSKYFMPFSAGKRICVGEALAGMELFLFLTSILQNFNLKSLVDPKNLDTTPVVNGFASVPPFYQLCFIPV

In the case of `O=C(c1cc(Br)c(O)c(Br)c1)N1CCOc2ccncc21` [Compound 4, (3,5-dibromo-4-hydroxy-phenyl)-(2,3-dihydro-pyrido[4,3-b][1,4]oxazin-4-yl)-methanone], the “enhanced uricosuric effect compared with Benzbromarone” value (Cebus monkey; 15 mg/kg, during 0~8 hours) was 160%, the “Plasma uric acid level” value (Cebus monkey; oral 3.75 mg/kg) was 3.88 mg/dL and the “Fractional excretion rate of uric acid (FEua)” value (from here on “Fractional excretion rate”) (Cebus monkey; oral 3.75 mg/kg, during 0~8 hours) was 24.1±13.3%. The “Plasma uric acid level” value (Cebus monkey; oral 7.5 mg/kg) was 3.66 mg/dL, the “Fractional excretion rate” value (Cebus monkey; oral 7.5 mg/kg, during 0~8 hours) was 31.6±13.3% and the “Plasma uric acid level” value (Cebus monkey; oral 15 mg/kg) was 3.40 mg/dL. For the same compound, the “Fractional excretion rate” value (Cebus monkey; [5]) was 33.2±19.8%, the pIC50 (CYP2C9 [1]) was 4.61 and the IC50 (hURAT1; read-out: IC50 (μM) hURAT, level of uric acid reuptake inhibition) was 0.023 µM. The “Solubility (μg/mL) pH 1.2” value ([2]; first solution pH about 1.2, 2 mg/mL) was 1927 μg/mL and the “Solubility (μg/mL) pH 6.8” value ([2]; second solution pH about 6.8, 2 mg/mL) was 970 μg/mL.

With `Br.O=C(c1cc(Br)c(O)c(Br)c1)N1CCOc2ccncc21` [Compound 3, (3,5-dibromo-4-hydroxy-phenyl)-(2,3-dihydro-pyrido[4,3-b][1,4]oxazin-4-yl)-methanone bromic acid salt] the “enhanced uricosuric activity compared to the compound disclosed in WO2006/057460” value (Cebus monkey; comparison test) was 180%, the pIC50 (CYP2C9 [1]) was 4.61 and the IC50 (hURAT1; IC50 (μM) hURAT, level of uric acid reuptake inhibition) was 0.0165 µM. The solubility at 2 h ([2]; pH 1.2, simulated gastric fluid, first solution pH about 1.2, 2 mg/mL, read-out: Solubility (μg/mL) pH 1.2) was 1420 µg/mL and the solubility at 2 h ([2]; pH 6.8, aqueous buffer, second solution pH about 6.8, 2 mg/mL, read-out: Solubility (μg/mL) pH 6.8) was 886 µg/mL.

In the case of `O=C(CN1C(=O)COc2ccncc21)c1cc(Br)c(O)c(Br)c1` [Compound 56], the pIC50 (CYP2C9 [3]) was under 4.70.

For `CCc1oc2ccccc2c1C(=O)c1cc(Br)c(O)c(Br)c1` [Benzbromarone, reference compound], the “Plasma uric acid level” value (Cebus monkey; oral 15 mg/kg) is listed as 3.80 mg/dL, the “Fractional excretion rate” value (Cebus monkey; [5]) is listed as 20.0±10.5% and the “area under the curve (AUC)” value [4, 6] is listed as 15900 ± 3300 ng·h/mL. The half-life of drug [4, 6] was 5.4 ± 1.9 h, the “time of maximum drug concentration in blood (Tmax)” value [4, 6] was 2.7 ± 1.0 h and the “excretion rate in urine” value [4] was “not detected”.

For `CCc1oc2cc(O)ccc2c1C(=O)c1cc(Br)c(O)c(Br)c1` [6-hydroxy benzbromarone], the half-life of drug [4, 6] is given as 18.0 ± 2.9 h, the “maximum concentration of drug (Cmax)” value [4, 6] is given as 1700 ± 400 ng/mL and the “time of maximum drug concentration in blood (Tmax)” value [4, 6] is given as 4.8 ± 1.3 h. The “excretion rate in urine” value [4] was 1.2 % of the administered amount.
